Bounds are passed on as bounds.

Test [1] concerns the target T1, SMARCA2-HiBiT HeLa cells (protein which is expressed from the SMARCA2 gene) (Homo sapiens, UniProt P51531).
T1 construct: protein which is expressed from the SMARCA2 and SMARCA4 genes; host or cells: HeLa (SMARCA2-HiBiT engineered line)
In words: SMARCA2 degradation assay (HiBiT-fusion HeLa cell line, 24 h, luminescence). It is filed as cell-based. The gist of the method:
(§1)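 HeLa cells carrying HiBiT-tagged SMARCA2 or SMARCA4 were seeded at 8,000 cells/well, allowed to attach overnight at 37° C., then given compounds in a 10-point dilution series (typically 10 μM to 300 pM) for 24 hours at 37° C. Remaining tagged protein was read by HiBiT lytic luminescence, and DC50s came from dose-response curves.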
A general note: HiBiT is a short tag that completes a luciferase, so light tracks the accessible tagged protein.

Test [2] concerns the target T2, SMARCA4-HiBiT HeLa cells (protein which is expressed from the SMARCA4 gene) (Homo sapiens, UniProt P51532).
T2 construct: protein which is expressed from the SMARCA2 and SMARCA4 genes; host or cells: HeLa (SMARCA4-HiBiT engineered line)
In words: SMARCA4 degradation assay (HiBiT-fusion HeLa cell line, 24 h, luminescence). It is filed as cell-based. The method, boiled down:
as §1

T2 sequence (P51532 whole entry): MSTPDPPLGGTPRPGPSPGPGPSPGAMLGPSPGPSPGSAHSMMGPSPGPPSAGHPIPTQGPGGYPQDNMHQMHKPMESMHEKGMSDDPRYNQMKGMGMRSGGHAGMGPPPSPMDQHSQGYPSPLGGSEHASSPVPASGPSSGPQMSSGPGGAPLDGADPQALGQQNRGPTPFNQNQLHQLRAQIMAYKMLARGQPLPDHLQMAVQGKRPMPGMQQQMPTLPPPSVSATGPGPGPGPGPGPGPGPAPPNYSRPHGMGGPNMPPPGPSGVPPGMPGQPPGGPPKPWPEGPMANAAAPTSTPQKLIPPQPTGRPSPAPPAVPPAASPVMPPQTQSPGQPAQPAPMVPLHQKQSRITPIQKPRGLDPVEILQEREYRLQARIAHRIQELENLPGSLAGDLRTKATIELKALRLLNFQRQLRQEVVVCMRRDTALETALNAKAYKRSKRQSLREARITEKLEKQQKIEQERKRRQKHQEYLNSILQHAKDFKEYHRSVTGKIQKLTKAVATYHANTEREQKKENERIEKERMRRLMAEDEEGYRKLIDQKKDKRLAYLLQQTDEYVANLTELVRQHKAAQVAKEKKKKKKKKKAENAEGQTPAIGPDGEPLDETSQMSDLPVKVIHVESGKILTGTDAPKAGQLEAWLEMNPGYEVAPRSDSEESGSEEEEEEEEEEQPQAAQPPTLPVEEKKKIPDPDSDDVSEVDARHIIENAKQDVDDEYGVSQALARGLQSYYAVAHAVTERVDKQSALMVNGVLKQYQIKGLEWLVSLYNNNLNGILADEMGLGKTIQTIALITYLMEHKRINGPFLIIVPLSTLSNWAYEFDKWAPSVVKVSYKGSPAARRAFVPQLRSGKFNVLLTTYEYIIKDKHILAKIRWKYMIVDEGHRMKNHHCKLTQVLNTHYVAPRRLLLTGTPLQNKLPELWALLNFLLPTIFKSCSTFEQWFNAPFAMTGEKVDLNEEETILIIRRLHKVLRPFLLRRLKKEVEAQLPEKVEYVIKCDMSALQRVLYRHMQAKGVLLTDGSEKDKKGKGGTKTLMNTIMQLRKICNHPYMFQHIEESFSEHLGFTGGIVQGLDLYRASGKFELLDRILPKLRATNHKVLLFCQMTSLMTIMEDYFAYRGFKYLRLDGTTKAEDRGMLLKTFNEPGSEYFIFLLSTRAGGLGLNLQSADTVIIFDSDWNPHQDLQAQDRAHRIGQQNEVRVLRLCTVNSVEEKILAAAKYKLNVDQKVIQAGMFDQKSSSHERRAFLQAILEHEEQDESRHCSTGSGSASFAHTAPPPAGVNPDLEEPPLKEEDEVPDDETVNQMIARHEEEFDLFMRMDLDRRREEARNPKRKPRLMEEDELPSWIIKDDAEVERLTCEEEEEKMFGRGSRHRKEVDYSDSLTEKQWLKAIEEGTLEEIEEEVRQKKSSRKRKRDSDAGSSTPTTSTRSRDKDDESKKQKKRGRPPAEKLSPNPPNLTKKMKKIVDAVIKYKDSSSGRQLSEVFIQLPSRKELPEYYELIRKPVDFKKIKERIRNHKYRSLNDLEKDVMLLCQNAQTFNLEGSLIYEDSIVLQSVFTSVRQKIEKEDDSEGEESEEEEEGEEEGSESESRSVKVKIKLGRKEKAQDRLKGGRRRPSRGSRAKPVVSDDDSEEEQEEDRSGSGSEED
T1 sequence (P51531 whole entry): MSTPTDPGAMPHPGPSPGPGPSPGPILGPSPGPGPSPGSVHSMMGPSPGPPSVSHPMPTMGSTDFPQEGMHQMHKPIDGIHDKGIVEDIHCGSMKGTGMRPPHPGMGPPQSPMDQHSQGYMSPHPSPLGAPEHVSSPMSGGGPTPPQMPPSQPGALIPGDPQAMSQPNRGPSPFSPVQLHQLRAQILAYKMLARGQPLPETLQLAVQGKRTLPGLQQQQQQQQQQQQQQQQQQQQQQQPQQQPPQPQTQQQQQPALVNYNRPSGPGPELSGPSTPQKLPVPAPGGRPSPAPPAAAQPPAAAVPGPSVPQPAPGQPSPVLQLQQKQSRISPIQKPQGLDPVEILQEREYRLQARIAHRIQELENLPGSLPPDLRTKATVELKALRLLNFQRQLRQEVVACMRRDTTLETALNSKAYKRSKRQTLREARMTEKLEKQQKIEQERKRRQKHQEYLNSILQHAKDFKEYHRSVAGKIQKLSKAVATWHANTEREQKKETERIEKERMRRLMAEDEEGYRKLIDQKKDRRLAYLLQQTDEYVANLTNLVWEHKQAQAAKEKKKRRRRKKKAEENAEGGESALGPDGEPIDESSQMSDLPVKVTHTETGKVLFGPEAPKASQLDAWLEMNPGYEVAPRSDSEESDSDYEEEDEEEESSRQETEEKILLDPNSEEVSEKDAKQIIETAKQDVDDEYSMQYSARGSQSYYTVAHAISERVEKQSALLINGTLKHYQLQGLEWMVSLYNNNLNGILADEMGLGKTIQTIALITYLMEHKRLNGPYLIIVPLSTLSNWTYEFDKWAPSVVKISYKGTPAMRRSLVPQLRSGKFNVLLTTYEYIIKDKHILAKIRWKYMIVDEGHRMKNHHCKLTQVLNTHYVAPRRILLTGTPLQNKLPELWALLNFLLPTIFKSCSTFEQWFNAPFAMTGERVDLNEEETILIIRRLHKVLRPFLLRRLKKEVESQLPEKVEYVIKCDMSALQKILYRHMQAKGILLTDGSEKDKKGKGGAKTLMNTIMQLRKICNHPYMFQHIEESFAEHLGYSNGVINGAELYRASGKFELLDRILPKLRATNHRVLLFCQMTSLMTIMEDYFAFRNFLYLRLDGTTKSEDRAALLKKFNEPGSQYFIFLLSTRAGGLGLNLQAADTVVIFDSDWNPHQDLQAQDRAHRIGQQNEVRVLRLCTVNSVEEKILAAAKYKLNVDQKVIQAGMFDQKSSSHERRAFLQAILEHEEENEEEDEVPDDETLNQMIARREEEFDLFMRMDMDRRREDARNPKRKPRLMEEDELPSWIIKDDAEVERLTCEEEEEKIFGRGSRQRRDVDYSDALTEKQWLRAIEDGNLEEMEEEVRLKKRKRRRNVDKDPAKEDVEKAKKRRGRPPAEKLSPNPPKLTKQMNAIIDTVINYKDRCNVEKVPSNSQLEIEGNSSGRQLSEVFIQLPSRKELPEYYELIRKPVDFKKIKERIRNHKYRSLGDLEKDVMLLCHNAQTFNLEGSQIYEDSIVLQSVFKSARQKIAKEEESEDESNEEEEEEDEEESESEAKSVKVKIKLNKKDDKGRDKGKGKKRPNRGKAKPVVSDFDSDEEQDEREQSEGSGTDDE

The term DC50 denotes the concentration at which degradation of the target reaches its halfway point. A lower DC50 goes with degradation at low concentration. A word on the inhibition: it is the relative decrease from the control value, in per cent. For `Nc1nnc(-c2ccccc2O)cc1N1CCN(c2ccnc(C#CCNC(=O)c3cc4n(n3)CCCC4)n2)CC1` [Compound P-69, N-(3-(4-(4-(3-amino-6-(2-hydroxyphenyl)pyridazin-4-yl)piperazin-1-yl)pyrimidin-2-yl)prop-2-yn-1-yl)-4,5,6,7-tetrahydropyrazolo[1,5-a]pyridine-2-carboxamide], in test [1], the DC50 was in the range of 50 to 500 nM and the “SMARCA2 % Degradation @ 1 μM” value is on record as “++ (++=30-70%)”. Besides, in test [2], the DC50 was less than 50 nM and the inhibition at 1 µM lay within 30 to 70%.
The like results for `Cc1cc(C)n2ncc(C(=O)NCC#Cc3nccc(N4CCN(c5cc(-c6ccccc6O)nnc5N)CC4)n3)c2n1` [Compound P-70, N-(3-(4-(4-(3-amino-6-(2-hydroxyphenyl)pyridazin-4-yl)piperazin-1-yl)pyrimidin-2-yl)prop-2-yn-1-yl)-5,7-dimethylpyrazolo[1,5-a]pyrimidine-3-carboxamide] were, in that order, 50 to 500 nM, “++ (++=30-70%)”, 50 to 500 nM and 30 to 70%.
Turning to `Nc1nnc(-c2ccccc2O)cc1N1CCN(c2ccnc(C#CCNC(=O)c3cnn4cccnc34)n2)CC1` [Compound P-71, N-(3-(4-(4-(3-amino-6-(2-hydroxyphenyl)pyridazin-4-yl)piperazin-1-yl)pyrimidin-2-yl)prop-2-yn-1-yl)pyrazolo[1,5-a]pyrimidine-3-carboxamide], in test [1], the DC50 fell in the range of 50 to 500 nM and the “SMARCA2 % Degradation @ 1 μM” value is reported as “++ (++=30-70%)”. In test [2], this compound came in with a DC50 of 50 to 500 nM and an inhibition at 1 µM of 30 to 70%.
As for `Nc1nnc(-c2ccccc2O)cc1N1CCN(c2ccnc(C#CCNC(=O)c3cnc4ccccc4n3)n2)CC1` [Compound P-72, N-(3-(4-(4-(3-amino-6-(2-hydroxyphenyl)pyridazin-4-yl)piperazin-1-yl)pyrimidin-2-yl)prop-2-yn-1-yl)quinoxaline-2-carboxamide], in test [1], the DC50 was less than 50 nM and the “SMARCA2 % Degradation @ 1 μM” value is given as “++ (++=30-70%)”. In test [2], this compound registered a DC50 of less than 50 nM and an inhibition at 1 µM of 30 to 70%.
Regarding `Nc1nnc(-c2ccccc2O)cc1N1CCN(c2ccnc(C#CCNC(=O)c3cc4ccccc4[nH]3)n2)CC1` [Compound P-73, N-(3-(4-(4-(3-amino-6-(2-hydroxyphenyl)pyridazin-4-yl)piperazin-1-yl)pyrimidin-2-yl)prop-2-yn-1-yl)-1H-indole-2-carboxamide], in test [1], the DC50 lay in the range of 50 to 500 nM and the “SMARCA2 % Degradation @ 1 μM” value is recorded as “++ (++=30-70%)”. Besides, in test [2], the DC50 lay within 50 to 500 nM and the inhibition at 1 µM lay in the range of 30 to 70%.
With `Cc1c(C(=O)NCC#Cc2nccc(N3CCN(c4cc(-c5ccccc5O)nnc4N)CC3)n2)oc2ccccc12` [Compound P-74, N-(3-(4-(4-(3-amino-6-(2-hydroxyphenyl)pyridazin-4-yl)piperazin-1-yl)pyrimidin-2-yl)prop-2-yn-1-yl)-3-methylbenzofuran-2-carboxamide], in test [1], the DC50 was 50 to 500 nM and the “SMARCA2 % Degradation @ 1 μM” value is recorded as “++ (++=30-70%)”. Also, in test [2], the DC50 was 50 to 500 nM and the inhibition at 1 µM fell in the range of 30 to 70%.
Regarding `Nc1nnc(-c2ccccc2O)cc1N1CCN(c2ccnc(C#CCNC(=O)c3cc4ccccc4o3)n2)CC1` [Compound P-75, N-(3-(4-(4-(3-amino-6-(2-hydroxyphenyl)pyridazin-4-yl)piperazin-1-yl)pyrimidin-2-yl)prop-2-yn-1-yl)benzofuran-2-carboxamide], in test [1], the DC50 lay in the range of 50 to 500 nM and the “SMARCA2 % Degradation @ 1 μM” value is recorded as “++ (++=30-70%)”. In test [2], this compound returned a DC50 of less than 50 nM and an inhibition at 1 µM of 30 to 70%.
The like results for `Nc1nnc(-c2ccccc2O)cc1N1CCCN(c2ccnc(C#CCNC(=O)c3cc4ncccn4n3)n2)CC1` [Compound P-76, N-(3-(4-(4-(3-amino-6-(2-hydroxyphenyl)pyridazin-4-yl)-1,4-diazepan-1-yl)pyrimidin-2-yl)prop-2-yn-1-yl)pyrazolo[1,5-a]pyrimidine-2-carboxamide] were, in that order, 50 to 500 nM, “+++ (+++=>70%)”, 50 to 500 nM and more than 70%.
For the compound `Nc1nnc(-c2ccccc2O)cc1N1CCC2C1CCN2c1ccnc(C#CCNC(=O)c2cc3ncccn3n2)n1` (stereo not drawn) [Compound P-77, N-(3-(4-(4-(3-amino-6-(2-hydroxyphenyl)pyridazin-4-yl)hexahydropyrrolo[3,2-b]pyrrol-1(2H)-yl)pyrimidin-2-yl)prop-2-yn-1-yl)pyrazolo[1,5-a]pyrimidine-2-carboxamide], in test [1], the DC50 is 500 to 5000 nM and the “SMARCA2 % Degradation @ 1 μM” value is recorded as “+ (+=<30%)”. In test [2], the DC50 lay in the range of 50 to 500 nM and the inhibition at 1 µM is 30 to 70%.
As to `Nc1nnc(-c2ccccc2O)cc1N1C2CCC1CN(c1ccnc(C#CCNC(=O)c3cc4ncccn4n3)n1)C2` [Compound P-78, N-(3-(4-(8-(3-amino-6-(2-hydroxyphenyl)pyridazin-4-yl)-3,8-diazabicyclo[3.2.1]octan-3-yl)pyrimidin-2-yl)prop-y2-yn-1-l)pyrazolo[1,5-a]pyrimidine-2-carboxamide], in test [1], the DC50 was 50 to 500 nM and the “SMARCA2 % Degradation @ 1 μM” value was “+++ (+++=>70%)”. In test [2], this compound showed a DC50 of 50 to 500 nM and an inhibition at 1 µM of 30 to 70%.
With `Nc1nnc(-c2ccccc2O)cc1N1CCCC2C1CCN2c1ccnc(C#CCNC(=O)c2cc3ncccn3n2)n1` (stereo not drawn) [Compound P-79, N-(3-(4-(4-(3-amino-6-(2-hydroxyphenyl)pyridazin-4-yl)octahydro-1H-pyrrolo[3,2-b]pyridin-1-yl)pyrimidin-2-yl)prop-2-yn-1-yl)pyrazolo[1,5-a]pyrimidine-2-carboxamide], in test [1], the DC50 was 500 to 5000 nM and the “SMARCA2 % Degradation @ 1 μM” value is “++ (++=30-70%)”. In test [2], this compound registered a DC50 of 50 to 500 nM and an inhibition at 1 µM of 30 to 70%.
The like results for `Nc1nnc(-c2ccccc2O)cc1N1C2CC1CN(c1ccnc(C#CCNC(=O)c3cc4ncccn4n3)n1)C2` [Compound P-80, N-(3-(4-(6-(3-amino-6-(2-hydroxyphenyl)pyridazin-4-yl)-3,6-diazabicyclo[3.1.1]heptan-3-yl)pyrimidin-2-yl)prop-2-yn-1-yl)pyrazolo[1,5-a]pyrimidine-2-carboxamide] were, in that order, 500 to 5000 nM, “+ (+=<30%)”, more than 5000 nM and less than 30%.
`C[C@@H]1CN(c2ccnc(C#CCNC(=O)c3cc4ncccn4n3)n2)C[C@@H](C)N1c1cc(-c2ccccc2O)nnc1N` [Compound P-82, N-(3-(4-((3R,5R)-4-(3-amino-6-(2-hydroxyphenyl)pyridazin-4-yl)-3,5-dimethylpiperazin-1-yl)pyrimidin-2-yl)prop-2-yn-1-yl)pyrazolo[1,5-a]pyrimidine-2-carboxamide]: in test [1], the 50% degradation concentration (DC50) is 500 to 5000 nM and the “SMARCA2 % Degradation @ 1 μM” value is listed as “+ (+=<30%)”. For the same compound, in test [2], the DC50 lay in the range of 500 to 5000 nM and the inhibition at 1 µM is less than 30%.
On to `CC1(C)CN(c2ccnc(C#CCNC(=O)c3cc4ncccn4n3)n2)CCN1c1cc(-c2ccccc2O)nnc1N` [Compound P-83, N-(3-(4-(4-(3-amino-6-(2-hydroxyphenyl)pyridazin-4-yl)-3,3-dimethylpiperazin-1-yl)pyrimidin-2-yl)prop-2-yn-1-yl)pyrazolo[1,5-a]pyrimidine-2-carboxamide], for which, in test [1], the DC50 was in the range of 500 to 5000 nM and the “SMARCA2 % Degradation @ 1 μM” value is “+ (+=<30%)”. In test [2], this compound had a DC50 of 50 to 500 nM and an inhibition at 1 µM of less than 30%.
The like results for `NCC#Cc1nccc(N2CC3CN(c4cc(-c5ccccc5O)nnc4N)C3C2)n1` (stereo not drawn) [Compound P-84, 2-(6-amino-5-(3-(2-(3-aminoprop-1-yn-1-yl)pyrimidin-4-yl)-3,6-diazabicyclo[3.2.0]heptan-6-yl)pyridazin-3-yl)phenol] were, in that order, 500 to 5000 nM, “+ (+=<30%)”, more than 5000 nM and less than 30%.
As for `CC1CCN(c2cc(-c3ccccc3O)nnc2N)CCN1c1ccnc(C#CCN)n1` (stereo not drawn) [Compound P-85, 2-(6-amino-5-(4-(2-(3-aminoprop-1-yn-1-yl)pyrimidin-4-yl)-5-methyl-1,4-diazepan-1-yl)pyridazin-3-yl)phenol], in test [1], the DC50 was 500 to 5000 nM and the “SMARCA2 % Degradation @ 1 μM” value is given as “+ (+=<30%)”. In test [2], this compound yielded a DC50 of 500 to 5000 nM and an inhibition at 1 µM of less than 30%.
Regarding `C[C@H]1CN(c2ccnc(C#CCN)n2)CCN1c1cc(-c2ccccc2O)nnc1N` [Compound P-86, (S)-2-(6-amino-5-(4-(2-(3-aminoprop-1-yn-1-yl)pyrimidin-4-yl)-2-methylpiperazin-1-yl)pyridazin-3-yl)phenol], the DC50 in test [1] was 500 to 5000 nM; in test [2] it was more than 5000 nM. In addition, the “SMARCA2 % Degradation @ 1 μM” value in test [1] is on record as “+ (+=<30%)”.
Regarding `NCC#Cc1nccc(N2CCC3(CCCN(c4cc(-c5ccccc5O)nnc4N)C3)CC2)n1` [Compound P-89, 2-(6-amino-5-(9-(2-(3-aminoprop-1-yn-1-yl)pyrimidin-4-yl)-2,9-diazaspiro[5.5]undecan-2-yl)pyridazin-3-yl)phenol], in test [1], the DC50 lay in the range of 500 to 5000 nM and the “SMARCA2 % Degradation @ 1 μM” value is reported as “+ (+=<30%)”. In test [2], this compound returned a DC50 of 500 to 5000 nM and an inhibition at 1 µM of less than 30%.
For the compound `NCC#Cc1nccc(N2CCC3(CC2)CCN(c2cc(-c4ccccc4O)nnc2N)CC3)n1` [Compound P-90, 2-(6-amino-5-(9-(2-(3-aminoprop-1-yn-1-yl)pyrimidin-4-yl)-3,9-diazaspiro[5.5]undecan-3-yl)pyridazin-3-yl)phenol], in test [1], the DC50 was 500 to 5000 nM and the “SMARCA2 % Degradation @ 1 μM” value is listed as “+ (+=<30%)”. In test [2], this compound gave a DC50 of 500 to 5000 nM and an inhibition at 1 µM of less than 30%.

(Values after US20260265238A1, “COMPOUNDS AND PHARMACEUTICAL COMPOSITIONS THAT DEGRADE SWI/SNF-RELATED MATRIX-ASSOCIATED ACTIN-DEPENDENT REGULATOR OF CHROMATIN SUBFAMILY A” (Plexium, Inc., priority 2023, published 2026).)
